Test results published in paper PMC6199744, “Development of Chemical Proteomics for the Folateome and Analysis of the Kinetoplastid Folateome” (ACS Infectious Diseases, 2018).
Read-outs that look alike come from different tables or passages of the source.

Tests used:
Type in all cases: binding
[1] = target: T1, HeLa cell extract proteins (Homo sapiens, UniProt P08559)
T1 construct: endogenous in cells; host or cells: HeLa cell extract
T1 sequence (P08559 30-390): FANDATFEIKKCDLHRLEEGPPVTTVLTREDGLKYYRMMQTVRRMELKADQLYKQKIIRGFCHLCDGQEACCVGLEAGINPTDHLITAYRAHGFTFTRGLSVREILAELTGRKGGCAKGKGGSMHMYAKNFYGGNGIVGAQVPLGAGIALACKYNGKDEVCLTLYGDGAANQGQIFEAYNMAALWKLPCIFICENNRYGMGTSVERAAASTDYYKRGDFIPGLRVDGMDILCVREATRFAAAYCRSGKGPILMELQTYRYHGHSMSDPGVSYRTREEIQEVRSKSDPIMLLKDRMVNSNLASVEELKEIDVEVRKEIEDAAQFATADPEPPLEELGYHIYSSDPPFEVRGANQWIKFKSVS

[2] = target: T2, HeLa cell extract proteins (Homo sapiens, UniProt P22102)
T2 construct: endogenous in cells; host or cells: HeLa cell extract
T2 sequence (P22102 1-1010): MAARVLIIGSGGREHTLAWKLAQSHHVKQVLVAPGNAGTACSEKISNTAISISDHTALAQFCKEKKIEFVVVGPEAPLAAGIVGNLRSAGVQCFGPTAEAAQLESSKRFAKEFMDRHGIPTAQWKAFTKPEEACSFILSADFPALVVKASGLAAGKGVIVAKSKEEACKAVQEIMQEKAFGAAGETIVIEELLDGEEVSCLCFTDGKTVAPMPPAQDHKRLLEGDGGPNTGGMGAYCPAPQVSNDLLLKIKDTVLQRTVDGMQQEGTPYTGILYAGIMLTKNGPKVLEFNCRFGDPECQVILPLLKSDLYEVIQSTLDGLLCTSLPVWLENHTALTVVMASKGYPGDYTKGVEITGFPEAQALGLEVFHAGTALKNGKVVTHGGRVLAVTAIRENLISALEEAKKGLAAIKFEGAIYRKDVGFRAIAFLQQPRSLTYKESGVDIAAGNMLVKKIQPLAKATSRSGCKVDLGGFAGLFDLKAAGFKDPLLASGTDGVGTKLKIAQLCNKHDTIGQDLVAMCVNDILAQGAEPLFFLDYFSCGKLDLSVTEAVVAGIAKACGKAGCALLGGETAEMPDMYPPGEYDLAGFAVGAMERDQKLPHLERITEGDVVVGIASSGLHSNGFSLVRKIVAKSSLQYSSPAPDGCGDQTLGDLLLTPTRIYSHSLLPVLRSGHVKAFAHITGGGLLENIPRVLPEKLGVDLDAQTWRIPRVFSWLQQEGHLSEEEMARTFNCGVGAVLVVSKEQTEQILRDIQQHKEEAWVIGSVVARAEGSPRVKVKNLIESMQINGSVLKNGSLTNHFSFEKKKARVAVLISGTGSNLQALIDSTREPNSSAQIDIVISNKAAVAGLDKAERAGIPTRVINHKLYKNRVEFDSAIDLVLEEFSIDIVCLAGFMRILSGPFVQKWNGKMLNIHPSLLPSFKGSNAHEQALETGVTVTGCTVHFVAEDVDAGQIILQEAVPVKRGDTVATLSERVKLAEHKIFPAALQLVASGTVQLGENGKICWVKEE

[3] = target: T3, HeLa cell extract proteins (Homo sapiens, UniProt P29401)
T3 construct: endogenous in cells; host or cells: HeLa cell extract
T3 sequence (P29401 1-623): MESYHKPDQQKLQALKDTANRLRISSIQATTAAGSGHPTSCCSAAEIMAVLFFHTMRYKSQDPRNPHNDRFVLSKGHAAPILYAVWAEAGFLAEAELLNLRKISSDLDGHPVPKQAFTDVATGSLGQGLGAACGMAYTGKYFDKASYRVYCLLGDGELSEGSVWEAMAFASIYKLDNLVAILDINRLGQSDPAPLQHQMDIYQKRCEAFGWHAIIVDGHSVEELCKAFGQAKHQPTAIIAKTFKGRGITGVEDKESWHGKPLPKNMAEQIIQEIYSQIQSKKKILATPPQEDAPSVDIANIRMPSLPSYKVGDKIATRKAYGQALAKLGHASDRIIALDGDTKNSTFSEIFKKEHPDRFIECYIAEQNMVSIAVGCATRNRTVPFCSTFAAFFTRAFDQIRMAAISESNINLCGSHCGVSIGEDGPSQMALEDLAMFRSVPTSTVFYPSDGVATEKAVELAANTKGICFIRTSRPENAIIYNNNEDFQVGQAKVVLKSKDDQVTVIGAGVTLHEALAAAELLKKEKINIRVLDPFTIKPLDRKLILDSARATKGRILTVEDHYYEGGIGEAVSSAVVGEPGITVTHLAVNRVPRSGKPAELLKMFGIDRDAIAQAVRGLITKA

[4] = target: T4, HeLa cell extract proteins (Homo sapiens, UniProt Q15067)
T4 construct: endogenous in cells; host or cells: HeLa cell extract
T4 sequence (Q15067 1-660): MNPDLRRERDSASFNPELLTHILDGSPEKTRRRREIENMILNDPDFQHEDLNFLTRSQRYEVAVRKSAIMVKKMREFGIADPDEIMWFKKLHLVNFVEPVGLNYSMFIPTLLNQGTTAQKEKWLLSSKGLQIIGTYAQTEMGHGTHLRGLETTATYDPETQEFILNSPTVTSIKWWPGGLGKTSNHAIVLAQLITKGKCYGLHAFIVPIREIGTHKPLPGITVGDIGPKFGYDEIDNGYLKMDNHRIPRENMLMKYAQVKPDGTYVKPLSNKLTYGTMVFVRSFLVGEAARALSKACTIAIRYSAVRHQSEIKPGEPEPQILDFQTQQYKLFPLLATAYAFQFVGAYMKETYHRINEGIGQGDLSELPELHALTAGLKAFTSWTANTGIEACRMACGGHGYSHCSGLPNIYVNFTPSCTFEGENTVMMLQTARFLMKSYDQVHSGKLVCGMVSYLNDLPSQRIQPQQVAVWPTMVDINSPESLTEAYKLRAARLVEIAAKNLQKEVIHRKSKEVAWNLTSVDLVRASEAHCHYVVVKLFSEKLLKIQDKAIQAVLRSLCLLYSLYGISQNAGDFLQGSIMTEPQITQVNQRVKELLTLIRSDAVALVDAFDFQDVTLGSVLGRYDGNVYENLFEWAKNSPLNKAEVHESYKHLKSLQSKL

[5] = target: T5, HeLa cell extract proteins (Homo sapiens, UniProt Q9NSI6)
T5 construct: endogenous in cells; host or cells: HeLa cell extract
T5 sequence (Q9NSI6 whole entry): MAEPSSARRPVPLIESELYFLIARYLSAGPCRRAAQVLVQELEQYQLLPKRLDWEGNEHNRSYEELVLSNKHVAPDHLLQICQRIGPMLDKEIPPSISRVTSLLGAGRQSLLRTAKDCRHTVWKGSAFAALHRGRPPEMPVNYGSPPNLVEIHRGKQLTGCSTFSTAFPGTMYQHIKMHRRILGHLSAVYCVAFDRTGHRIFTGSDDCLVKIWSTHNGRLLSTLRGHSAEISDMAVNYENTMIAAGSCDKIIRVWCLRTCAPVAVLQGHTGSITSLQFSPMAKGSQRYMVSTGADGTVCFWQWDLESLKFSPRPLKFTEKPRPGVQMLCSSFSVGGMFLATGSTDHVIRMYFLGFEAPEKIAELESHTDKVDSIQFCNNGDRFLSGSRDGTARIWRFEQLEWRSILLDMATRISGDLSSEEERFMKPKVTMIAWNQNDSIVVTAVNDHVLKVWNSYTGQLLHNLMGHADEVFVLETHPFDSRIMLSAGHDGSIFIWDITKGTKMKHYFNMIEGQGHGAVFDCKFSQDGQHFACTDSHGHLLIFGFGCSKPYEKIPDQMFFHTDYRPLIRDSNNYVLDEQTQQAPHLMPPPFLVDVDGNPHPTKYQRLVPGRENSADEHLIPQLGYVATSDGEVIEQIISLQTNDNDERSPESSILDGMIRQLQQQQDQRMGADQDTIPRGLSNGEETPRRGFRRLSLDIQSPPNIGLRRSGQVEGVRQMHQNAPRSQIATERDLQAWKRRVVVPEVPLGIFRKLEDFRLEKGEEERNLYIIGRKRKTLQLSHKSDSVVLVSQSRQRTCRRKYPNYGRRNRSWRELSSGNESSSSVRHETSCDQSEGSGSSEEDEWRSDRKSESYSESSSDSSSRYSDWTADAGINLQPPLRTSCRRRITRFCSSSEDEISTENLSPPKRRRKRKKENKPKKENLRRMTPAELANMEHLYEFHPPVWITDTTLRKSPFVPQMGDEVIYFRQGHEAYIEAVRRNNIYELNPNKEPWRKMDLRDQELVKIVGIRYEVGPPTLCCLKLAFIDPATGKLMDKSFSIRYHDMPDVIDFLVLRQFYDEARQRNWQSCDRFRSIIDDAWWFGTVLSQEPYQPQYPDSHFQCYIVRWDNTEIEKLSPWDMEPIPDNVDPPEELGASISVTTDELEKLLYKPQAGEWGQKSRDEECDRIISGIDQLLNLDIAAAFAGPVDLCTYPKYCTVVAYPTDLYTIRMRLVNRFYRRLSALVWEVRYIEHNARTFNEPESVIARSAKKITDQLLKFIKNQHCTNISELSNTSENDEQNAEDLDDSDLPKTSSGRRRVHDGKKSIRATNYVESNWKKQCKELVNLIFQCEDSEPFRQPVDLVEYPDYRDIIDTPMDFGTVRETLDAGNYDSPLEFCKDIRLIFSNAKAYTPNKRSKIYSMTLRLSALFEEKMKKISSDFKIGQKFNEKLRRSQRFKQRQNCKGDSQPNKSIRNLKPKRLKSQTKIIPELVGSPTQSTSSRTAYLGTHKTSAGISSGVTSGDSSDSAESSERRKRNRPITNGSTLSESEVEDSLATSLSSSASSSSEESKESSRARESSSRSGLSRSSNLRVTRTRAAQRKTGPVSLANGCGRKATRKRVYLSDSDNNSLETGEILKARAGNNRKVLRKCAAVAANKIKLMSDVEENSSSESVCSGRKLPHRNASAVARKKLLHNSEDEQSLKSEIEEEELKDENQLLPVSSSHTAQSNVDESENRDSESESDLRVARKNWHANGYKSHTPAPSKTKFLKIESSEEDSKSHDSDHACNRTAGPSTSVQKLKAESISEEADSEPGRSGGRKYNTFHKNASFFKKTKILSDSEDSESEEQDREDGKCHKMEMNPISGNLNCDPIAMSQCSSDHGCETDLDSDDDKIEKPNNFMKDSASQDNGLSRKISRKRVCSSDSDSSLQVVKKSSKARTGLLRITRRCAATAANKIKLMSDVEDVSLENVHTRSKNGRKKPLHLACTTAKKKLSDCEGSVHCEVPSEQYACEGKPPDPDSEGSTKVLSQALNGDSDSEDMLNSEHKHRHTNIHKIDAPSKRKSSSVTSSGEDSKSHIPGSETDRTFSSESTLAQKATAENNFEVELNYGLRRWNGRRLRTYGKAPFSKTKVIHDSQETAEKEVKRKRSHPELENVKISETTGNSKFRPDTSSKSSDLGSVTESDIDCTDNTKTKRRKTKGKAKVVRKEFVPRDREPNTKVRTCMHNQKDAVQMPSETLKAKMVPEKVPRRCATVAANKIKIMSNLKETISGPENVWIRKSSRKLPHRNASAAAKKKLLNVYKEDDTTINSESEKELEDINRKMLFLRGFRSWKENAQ

Nc1nc2c(c(=O)[nH]1)N(C=O)C(CNc1ccc(C(=O)N[C@@H](CCC(=O)O)C(=O)O)cc1)CN2 (some centres unmarked) [LEU, leucovorin]
fold changes relative to vehicle control ([1]; HeLa, captured protein PDHA1): 1.06 | fold changes relative to vehicle control ([2]; protein GART, HeLa): 0.66 | fold changes relative to vehicle control ([3]; HeLa, protein TKT): 1.12 | fold changes relative to vehicle control ([4]; HeLa, protein ACOX1): 1 | fold changes relative to vehicle control ([5]; HeLa, protein BRWD1): 0.93

NCCCNc1ccc(C(=O)NC(CCC(=O)O)C(=O)O)cc1 (centres unmarked) [compound 7]
fold changes relative to vehicle control ([1]; HeLa, captured protein PDHA1): 0.99 | fold changes relative to vehicle control ([2]; protein GART, HeLa): 1.14 | fold changes relative to vehicle control ([3]; HeLa, protein TKT): 0.99 | fold changes relative to vehicle control ([4]; HeLa, protein ACOX1): 0.94 | fold changes relative to vehicle control ([5]; HeLa, protein BRWD1): 0.92

CCCCCCOc1cccc(Cc2cnc(N)nc2N)c1 [compound 2]
fold changes relative to vehicle control ([1]; HeLa, protein PDHA1): 0.4 | fold changes relative to vehicle control ([2]; captured protein GART, HeLa): 1.03 | fold changes relative to vehicle control ([3]; protein TKT, HeLa): 2.08 | fold changes relative to vehicle control ([4]; HeLa, protein ACOX1): 0.92 | fold changes relative to vehicle control ([5]; captured protein BRWD1, HeLa): 1.03

CCCCCCOc1ccc(Cc2cnc(N)nc2N)cc1 [compound 1]
fold changes relative to vehicle control ([1]; HeLa, protein PDHA1): 1.02 | fold changes relative to vehicle control ([2]; captured protein GART, HeLa): 0.94 | fold changes relative to vehicle control ([3]; protein TKT, HeLa): 1.41 | fold changes relative to vehicle control ([4]; HeLa, protein ACOX1): 0.98 | fold changes relative to vehicle control ([5]; captured protein BRWD1, HeLa): 1.01

Nc1nc2cccc(-c3ccccc3)c2n1Cc1ccc(Cl)c(Cl)c1 [compound 3]
fold changes relative to vehicle control ([1]; HeLa, protein PDHA1): 1.07 | fold changes relative to vehicle control ([2]; captured protein GART, HeLa): 1.1 | fold changes relative to vehicle control ([3]; protein TKT, HeLa): 0.9 | fold changes relative to vehicle control ([4]; HeLa, protein ACOX1): 1.33 | fold changes relative to vehicle control ([5]; captured protein BRWD1, HeLa): 0.9

NCCOCCOCC(=O)Nc1nc2ncc(CNc3ccc(C(=O)NC(CCC(=O)O)C(=O)O)cc3)nc2c(=O)[nH]1 (centres unmarked) [compound 6]
fold changes relative to vehicle control ([1]; HeLa, captured protein PDHA1): 1 | fold changes relative to vehicle control ([2]; protein GART, HeLa): 0.72 | fold changes relative to vehicle control ([3]; HeLa, protein TKT): 1.26 | fold changes relative to vehicle control ([4]; HeLa, protein ACOX1): 0.99 | fold changes relative to vehicle control ([5]; HeLa, protein BRWD1): 1.05

Nc1nc2[nH]cc(CCc3ccc(C(=O)N[C@@H](CCC(=O)O)C(=O)O)cc3)c2c(=O)[nH]1 [PTX, pemetrexed]
fold changes relative to vehicle control [1]: 1.04 | fold changes relative to vehicle control [2]: 0.43 | fold changes relative to vehicle control [3]: 1.2 | fold changes relative to vehicle control [4]: 0.95 | fold changes relative to vehicle control [5]: 1.07
